For assay [1], the target named is T1, RsTAL (Cereibacter sphaeroides, UniProt Q3IWB0).
T1 construct: were optimized for E. coli and synthesized by GeneArt, amplified by PCR; expressed in transfected cells; host or cells: E. coli BL21(DE3), plasmid pCBJ215
Nature of the assay: Titers of pHCA and zosteric acid, E. coli co-expressing tyrosine ammonia-lyase and SULT1A1 rat. The format is cell-based, Rhodobacter sphaeroides. The note with it: E. coli BL21(DE3) with SULT1A1 rat and RsTAL; M9, 0.2% glucose, 2 mM tyrosine, 1 mM IPTG; overnight 37° C.; supernatant. The protocol: (§1) The concentration of p-courmaric acid (pHCA) and zosteric acid in the supernatant was quantified by high performance liquid chromatography (HPLC) and compared to chemical standards. HPLC was done on a Thermo setup using a HS-F5 column and mobile phases: 5 mM ammonium formate pH 4.0 (A) and acetonitrile (B) at 1.5 mL min-1, using a gradient elution starting at 5% B. From 0.5 min after injection to 7 min, the fraction of B increased linearly from 5% to 60%, and between 9.5 min and 9.6 the fraction of B decreased back to 5%, and remaining there until 12 min. pHCA and zosteric acid were quantified by measuring absorbance at 277 nm.
The genes encoding the tyrosine ammonia-lyases RcTAL (from Rhodobacter capsulatus; SEQ ID NO: 50), RsTAL (from Rhodobacter sphaeroides; SEQ ID NO: 43) and FjTAL (from Flavobacterium johnsoniae; SEQ ID NO: 40) were cloned into expression vectors as follows. […]
Strains harboring recombinant plasmids were pre-cultured in 2×YT liquid medium with 100 μg mL^−1 ampicillin and 50 μg mL^−1 spectinomycin and incubated at 37° C. and 250 rpm overnight. […] The supernatants were then collected by centrifugation twice and applied to HPLC analysis as described in example 1, and the titers of p-coumaric acid (pHCA) and zosteric acid (ZA) were quantified using chemical standards and are presented in the table below.

The target of assay [2] is T2, SULT1A1 human (Homo sapiens, UniProt P50225, V223M).
T2 construct: expressed in transfected cells; host or cells: E. coli BL21(DE3)pLysS
T2 sequence (P50225 whole entry V223M): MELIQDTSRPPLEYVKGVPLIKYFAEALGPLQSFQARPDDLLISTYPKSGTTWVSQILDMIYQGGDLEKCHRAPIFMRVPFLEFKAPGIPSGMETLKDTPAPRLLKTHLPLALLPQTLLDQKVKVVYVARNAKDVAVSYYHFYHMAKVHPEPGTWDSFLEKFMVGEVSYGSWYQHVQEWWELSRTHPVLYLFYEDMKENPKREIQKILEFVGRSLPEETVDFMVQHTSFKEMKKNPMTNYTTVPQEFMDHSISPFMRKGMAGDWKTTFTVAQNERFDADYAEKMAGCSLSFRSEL
Kind of assay: pHCA and zosteric acid in culture media of E. coli expressing an aryl sulfotransferase in combination with a tyrosine ammonia lyase. The format is cell-based. The note with it: E. coli BL21(DE3)pLysS expressing SULT1A1 Homo sapiens and RmXAL, M9 glucose, 0.1 mM IPTG, no substrate added. The protocol:
as §1
(§2) The enzyme RmXAL from Rhodotorula mucilaginosa/Rhodotorula rubra (SEQ ID NO: 46) has tyrosine ammonia lyase activity, thus catalyzing the non-oxidative deamination of the amino acid tyrosine, releasing p-coumaric acid (pHCA) and ammonia. The gene encoding RmXAL was codon optimized using standard algorithms for expression in E. coli available by GeneArt (Life Technologies) and amplified by PCR using the primers shown in Table 5 and inserted into the pCDFDuet-1 vector (Novagen/Life Technologies), which had been digested by the restriction enzymes NdeI and BgIII, using Gibson reaction (New England Biolabs). […]

Assay [3] concerns the target T2, SULT1A1 human. Kind of assay: pHCA and zosteric acid in culture media of E. coli expressing an aryl sulfotransferase in combination with cysDNC and cysQ. The format is cell-based. The note with it: Enzymes: SULT1A1 Homo sapiens, grown as in Example 1 (0.1 mM pHCA). As for the experimental part: The strains were grown in M9 minimal media containing glucose as a carbon source, and 0.1 mM IPTG for induction of gene expression as well as 0.1 mM p-coumaric acid (pHCA). After four days of growth, samples were withdrawn by filtration and analyzed by HPLC.
as §1
The addition of sulfated groups to targets is dependent on supply of the donor molecule 3′-Phosphoadenosine 5′-phosphosulfate (PAPS). We examined if we could increase the production of zosteric acid by overexpressing enzymes providing PAPS and an enzyme that removes the product 3′-Phosphoadenosine 5′-phosphate (PAP).
In E. coli, the genes cysD and cysN encode the two subunits of ATP sulfurylase (EC:2.7.7.4), cysC encodes APS kinase (EC:2.7.1.25), and cysQ encode a PAP phosphatase.
The plasmid pRSFDuet-1 (Life Technologies) was digested by the restriction endonucleases NdeI and BgIII. The gene cluster was inserted into the digested plasmid using the Gibson reaction (New England Biolabs). […] For the combined expression of cysDNC and cysQ in an artificial operon, cysDNCQ, the two parts were amplified by PCR from E. coli MG1655 chromosomal DNA using the primers shown in Table 3. Again the parts were inserted into the digested plasmid. […] The plasmid expressing SULT1A1 Homo sapiens (SEQ ID NO: 2) from example 1 was co-transformed into E. coli BL21(DE3)pLysS cells (Life Technologies) with either the plasmid expressing cysDNC or cysDNCQ.
Cells were grown as in Example 1 and the supernatants were analyzed for product formation as in example 1. The strain expressing SULT1A1 in combination with cysDNCQ was also grown without the addition of IPTIG for induction.

Assay [4] has as its target T3, RmXAL (Rhodotorula mucilaginosa, UniProt P10248).
T3 construct: The gene encoding RmXAL was codon optimized using standard algorithms for expression in E. coli; expressed in transfected cells; host or cells: E. coli BL21(DE3)pLysS
Kind of assay: pHCA and zosteric acid in culture media of E. coli expressing a tyrosine ammonia lyase. The following applies: E. coli BL21(DE3)pLysS expressing RmXAL alone, M9 glucose, 0.1 mM IPTG, no substrate added. The format is cell-based, Rhodotorula mucilaginosa/Rhodotorula rubra. As for the experimental part:
as §1, §2

T1 sequence (Q3IWB0 whole entry Q21E/A24S/I74V/S113A/S143M/R238G/D285G/G287S): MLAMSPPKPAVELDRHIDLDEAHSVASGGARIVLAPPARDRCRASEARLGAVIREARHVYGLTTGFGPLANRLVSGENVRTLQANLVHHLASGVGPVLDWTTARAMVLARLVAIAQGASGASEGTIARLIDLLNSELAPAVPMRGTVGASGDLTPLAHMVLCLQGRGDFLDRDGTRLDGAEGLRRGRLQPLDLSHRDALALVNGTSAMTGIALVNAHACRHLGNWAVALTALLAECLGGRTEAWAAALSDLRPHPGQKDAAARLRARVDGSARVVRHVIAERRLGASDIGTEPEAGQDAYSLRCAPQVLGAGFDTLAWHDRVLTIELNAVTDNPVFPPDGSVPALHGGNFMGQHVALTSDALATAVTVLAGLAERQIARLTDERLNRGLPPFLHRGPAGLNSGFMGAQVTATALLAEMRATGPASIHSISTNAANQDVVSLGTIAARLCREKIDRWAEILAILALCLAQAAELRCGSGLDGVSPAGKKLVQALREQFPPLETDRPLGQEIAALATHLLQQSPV
T3 sequence (P10248 whole entry): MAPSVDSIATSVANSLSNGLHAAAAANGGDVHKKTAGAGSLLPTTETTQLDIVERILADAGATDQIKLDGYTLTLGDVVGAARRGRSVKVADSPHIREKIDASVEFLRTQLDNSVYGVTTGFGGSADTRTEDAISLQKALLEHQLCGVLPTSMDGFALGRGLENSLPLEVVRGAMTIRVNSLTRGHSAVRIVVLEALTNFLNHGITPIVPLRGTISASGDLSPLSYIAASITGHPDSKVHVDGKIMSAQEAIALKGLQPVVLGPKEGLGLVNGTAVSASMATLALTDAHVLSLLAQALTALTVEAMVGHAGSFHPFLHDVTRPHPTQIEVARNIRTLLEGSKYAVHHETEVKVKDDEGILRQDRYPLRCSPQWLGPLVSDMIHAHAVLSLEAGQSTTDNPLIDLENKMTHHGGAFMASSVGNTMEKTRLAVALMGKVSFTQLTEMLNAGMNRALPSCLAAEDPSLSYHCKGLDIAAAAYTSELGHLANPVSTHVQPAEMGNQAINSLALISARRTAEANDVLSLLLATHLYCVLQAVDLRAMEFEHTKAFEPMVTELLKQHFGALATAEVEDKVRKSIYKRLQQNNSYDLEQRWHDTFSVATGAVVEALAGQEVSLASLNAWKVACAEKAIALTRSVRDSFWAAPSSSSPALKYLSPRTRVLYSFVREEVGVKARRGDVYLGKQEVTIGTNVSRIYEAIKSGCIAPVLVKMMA

Consider `O=C(O)/C=C/c1ccc(OS(=O)(=O)O)cc1` [Zosteric acid, zosteric acid], for which the “Titer of zosteric acid (ZA)” value in assay [1] was less than 1 µM. The Zosteric acid formed in assay [2] is given as 0.01 mM; in assay [3] (CysDNC, induction 0.1 mM IPTG), 0.06 mM; in assay [3] (CysDNCQ, induction 0.1 mM IPTG), 0.09 mM; in assay [3] (induction 0.1 mM IPTG), 0.02 mM; in assay [4] it was “Not detectable”.
`O=C(O)/C=C/c1ccc(O)cc1` [pHCA, p-coumaric acid]: the “Titer of p-coumaric acid (pHCA)” value in assay [1] is reported as 78 μM. Further, the pHCA came to 0.02 mM in assay [2] and 0.04 mM in assay [4]. Besides, the pHCA remaining in assay [3] (CysDNC, induction 0.1 mM IPTG) was found to be 0.06 mM; in assay [3] (CysDNCQ, induction 0.1 mM IPTG), 0.04 mM; in assay [3] (CysDNCQ, induction None), 0.10 mM; in assay [3] (induction 0.1 mM IPTG), 0.08 mM.

These data come from patent US11555212B2, “Process for the production of sulfated phenolic compounds using modified Escerichia coli” (CysBio ApS, priority 2016, dated 2023).
